We go through six compounds from US9650395B2, “Antibacterial compounds and methods for use” (PTC Therapeutics, Inc., priority 2011, dated 2017).

For orientation: MIC means the lowest concentration found to suppress growth.

In brackets after ≈: the same amount, converted by molar mass. Some results are limits rather than exact numbers.

Assay [1] relates to Acinetobacter baumannii (A. baumannii) BAA747. As to the kind of experiment: Antibacterial activity, MIC, A. baumannii BAA747. It counts as cell-based. As to conditions: Acinetobacter baumannii; A. baumannii BAA747; read-out: MIC BAA747.
The test system of assay [2] is quinolone resistant E. coli LZ3111. As to the kind of experiment: Antibacterial activity, MIC, quinolone resistant E. coli LZ3111. It counts as cell-based, Escherichia coli. As to conditions: Escherichia coli, read-out: MIC, LZ3111. The source says: (§1) The antibacterial activity from a microbroth dilution method may be presented as the minimum inhibitory concentration (MIC in […]). The MIC value is the lowest concentration of a drug which prevents macroscopically visible bacterial growth under test conditions.
Mutations in these regions are known to confer a high level resistance to the quinolone class of antibiotics.

For assay [3], the system named is resistant A. baumannii MXX2240 (MDR clinical isolate). As to the kind of experiment: Antibacterial activity, MIC, resistant A. baumannii MXX2240. It counts as cell-based, Acinetobacter baumannii. The settings on record: Acinetobacter baumannii, resistant A. baumannii MMX2240, MDR clinical isolate; read-out: MIC MMX2240.
Assay [4] deals with Klebsiella pneumoniae (K. pneumoniae) 35657. Nature of the assay: Antibacterial activity, MIC, K. pneumoniae 35657. It counts as cell-based. As to conditions: Klebsiella pneumoniae.
Assay [5] relates to resistant K. pneumoniae MXX1232 (MDR clinical isolate). Nature of the assay: Antibacterial activity, MIC, resistant K. pneumoniae MXX1232. It counts as cell-based, Klebsiella pneumoniae. The settings on record: Klebsiella pneumoniae; resistant K. pneumoniae MMX1232, MDR clinical isolate; read-out: MIC MMX1232.
The subject of assay [6] is Gram-positive Staphylococcus aureus (S. aureus) 29213. As to the kind of experiment: Antibacterial activity, microbroth dilution MIC, S. aureus 29213. It counts as cell-based. The settings on record: Staphylococcus aureus; S. aureus 29213, microbroth dilution; read-out: MIC, 29213.
Assay [7] concerns Pseudomonas aeruginosa (P. aeruginosa) 27853. As to the kind of experiment: Antibacterial activity, MIC, P. aeruginosa 27853. It counts as cell-based. As to conditions: Pseudomonas aeruginosa, P. aeruginosa 27853; read-out: MIC 27853.
Excerpt: as §1
Antibacterial activity of test compounds against the Gram-negative bacterium Pseudomonas aeruginosa (P. aeruginosa) 27853 is shown in Table 5.

Assay [8] concerns super sensitive Gram-negative Escherichia coli (E. coli) BAS849. Nature of the assay: Antibacterial activity, microbroth dilution MIC, E. coli BAS849. It counts as cell-based. The settings on record: Escherichia coli; E. coli BAS849, microbroth dilution; read-out: MIC, BAS849.
Assay [9] concerns control Gram-negative E. coli 25922 strain. Nature of the assay: Antibacterial activity, microbroth dilution MIC, E. coli 25922. It counts as cell-based, Escherichia coli. The settings on record: Escherichia coli; E. coli 25922, microbroth dilution; read-out: MIC, 25922.

As for `Cc1c(-c2ccc(N3CCCC3)cn2)[nH]c(=O)c(C(=O)O)c1O` [Cpd 315, 4-hydroxy-5-methyl-2-oxo-6-(5-(pyrrolidin-1-yl)pyridin-2-yl)-1,2-dihydropyridine-3-carboxylic acid], the MIC in assay [1], in assay [2], in assay [3], in assay [4], in [5] and in [6] was 12.5 to 150 µg/mL (≈ 39.6 to 476 µM) in each case. The values for the MIC in assay [7], in [8] and in assay [9] were 12.5 to 150 µg/mL (≈ 39.6 to 476 µM), 1 to 3.5 µg/mL (≈ 3.17 to 11.1 µM) and 12.5 to 150 µg/mL (≈ 39.6 to 476 µM), respectively.
Consider `Cc1c(-c2ccc(N3CCC(N(C)C)C3)cn2)[nH]c(=O)c(C(=O)O)c1O` (stereo not drawn) [Cpd 316, 6-(5-(3-(dimethylamino)pyrrolidin-1-yl)pyridin-2-yl)-4-hydroxy-5-methyl-2-oxo-1,2-dihydropyridine-3-carboxylic acid], for which the MIC in assay [1], in assay [2], in assay [3], in [4], in assay [5] and in assay [6] was 12.5 to 150 µg/mL (≈ 34.9 to 419 µM) throughout. The MIC in assay [7], in [8] and in assay [9] was 12.5 to 150 µg/mL (≈ 34.9 to 419 µM) in each case.
With `Cc1c(-c2ccc(N3C[C@@H]4[C@@H](N)[C@@H]4C3)cn2)[nH]c(=O)c(C(=O)O)c1O` [Cpd 317, 6-(5-((1R,5S,6s)-6-amino-3-azabicyclo[3.1.0]hexan-3-yl)pyridin-2-yl)-4-hydroxy-5-methyl-2-oxo-1,2-dihydropyridine-3-carboxylic acid], the MIC fell in the range of 12.5 to 150 µg/mL (≈ 36.5 to 438 µM) in assay [1]; 12.5 to 150 µg/mL (≈ 36.5 to 438 µM) in assay [2]; 12.5 to 150 µg/mL (≈ 36.5 to 438 µM) in [3]; 3.5 to 12.5 µg/mL (≈ 10.2 to 36.5 µM) in assay [4]; 12.5 to 150 µg/mL (≈ 36.5 to 438 µM) in assay [5]; 12.5 to 150 µg/mL (≈ 36.5 to 438 µM) in assay [6]. Further, the MIC lay within 12.5 to 150 µg/mL (≈ 36.5 to 438 µM) in [7], 3.5 to 12.5 µg/mL (≈ 10.2 to 36.5 µM) in assay [8] and 3.5 to 12.5 µg/mL (≈ 10.2 to 36.5 µM) in assay [9].
Regarding `Cc1cc(N2C[C@@H]3[C@@H](N)[C@@H]3C2)ccc1-c1[nH]c(=O)c(C(=O)O)c(O)c1C` [Cpd 318, 6-(4-((1R,5S,6s)-6-amino-3-azabicyclo[3.1.0]hexan-3-yl)-2-methylphenyl)-4-hydroxy-5-methyl-2-oxo-1,2-dihydropyridine-3-carboxylic acid], the MIC in assay [1], in assay [2], in [3], in [4], in assay [5] and in assay [6] was 12.5 to 150 µg/mL (≈ 35.2 to 422 µM) each time. The MIC in [7] lay within 12.5 to 150 µg/mL (≈ 35.2 to 422 µM); in assay [8] it was 3.5 to 12.5 µg/mL (≈ 9.85 to 35.2 µM); in assay [9], 12.5 to 150 µg/mL (≈ 35.2 to 422 µM).
`CCc1c(-c2ccc(N3CC4(CCN(C)CC4)C3)cc2)[nH]c(=O)c(C(=O)O)c1O` [Cpd 319, 5-ethyl-4-hydroxy-6-(4-(7-methyl-2,7-diazaspiro[3.5]nonan-2-yl)phenyl)-2-oxo-1,2-dihydropyridine-3-carboxylic acid]: the MIC in [1] was in the range of 12.5 to 150 µg/mL (≈ 31.4 to 377 µM); in [2], 12.5 to 150 µg/mL (≈ 31.4 to 377 µM); in assay [3] it was 12.5 to 150 µg/mL (≈ 31.4 to 377 µM); in [4], 3.5 to 12.5 µg/mL (≈ 8.81 to 31.4 µM); in assay [5], 12.5 to 150 µg/mL (≈ 31.4 to 377 µM); in assay [6] it was 12.5 to 150 µg/mL (≈ 31.4 to 377 µM). Also, the MIC was 12.5 to 150 µg/mL (≈ 31.4 to 377 µM) in [7], < 1 µg/mL in assay [8] and 3.5 to 12.5 µg/mL (≈ 8.81 to 31.4 µM) in assay [9].
As to `CCc1c(-c2ccc(N3CC4(CCNCC4)C3)cc2)[nH]c(=O)c(C(=O)O)c1O` [Cpd 320, 6-(4-(2,7-diazaspiro[3.5]nonan-2-yl)phenyl)-5-ethyl-4-hydroxy-2-oxo-1,2-dihydropyridine-3-carboxylic acid], the MIC in assay [1] fell in the range of 12.5 to 150 µg/mL (≈ 32.6 to 391 µM); in assay [2], 12.5 to 150 µg/mL (≈ 32.6 to 391 µM); in assay [3] it was 12.5 to 150 µg/mL (≈ 32.6 to 391 µM); in [4], 3.5 to 12.5 µg/mL (≈ 9.13 to 32.6 µM); in assay [5], 12.5 to 150 µg/mL (≈ 32.6 to 391 µM); in assay [6], 12.5 to 150 µg/mL (≈ 32.6 to 391 µM). The values for the MIC in assay [7], in assay [8] and in assay [9] were 12.5 to 150 µg/mL (≈ 32.6 to 391 µM), 3.5 to 12.5 µg/mL (≈ 9.13 to 32.6 µM) and 12.5 to 150 µg/mL (≈ 32.6 to 391 µM), respectively.
